# Assay results as given in patent US6623766B1, “Process for insecticidal formulation effective in controlling malarial vector, mosquitoes” (Council of Scientific and Industrial Research, priority 2002, dated 2003).
# Tested on: mosquito (Anopheles stephensi) larvae
# Test: Standard WHO larvicidal test (WHO, 1981, slightly modified) on fourth-stage mosquito larvae, mortality after 24 hours
# Type: in vivo
# Protocol: (§1) Essential oil (0.1 ml) obtained from plant genus Foeniculum vulgare was first mixed with Tween-80 (0.1 ml) of 0.001% concentration and then the mixture was dissolved in water to make the solution of 0.01% concentration. This solution was tested against mosquito (Anopheles stephensi) larvae in the laboratory.
# (§2) Standard WHO test (WHO, 1981) was employed with slight modification in the test procedure. A single fourth-stage larva was put into each of fifty vials containing 5 ml of the got test solution of each concentration. Single vial with one larva was used in one replication. Thus a total of 50 insects were used in fifty replications. Mortality data for mosquito larvae were recorded after 24 hours.
# as §1, with “Mentha spicata var. viridis” for “Foeniculum vulgare”
# as §2, with “the” for “the got”
# as §1, with “Zingiber officinale” for “Foeniculum vulgare”
# Tween-80 purchased from Hi-Media, Mumbai, India, an emulsifying agent (0.1-ml) of 0.001% concentration was dissolved in water to make the solution of 0.01% concentration. This solution was tested against mosquito (Anopheles stephensi) larvae in the laboratory.
# as §1, with “oil (0.05 ml each)” for “oil (0.1 ml)”, “vulgare and Mentha spicata var. viridis were” for “vulgare was”
# as §1, with “oil (0.05 ml each)” for “oil (0.1 ml)”, “vulgare and Zingiber officinale were” for “vulgare was”, “laboratory. […]” for “laboratory.”
compound,measurement,setting,value
"C/C=C\c1cc(OC)c(OC)cc1OC [Example 14, β-Asarone]",Mean % mortality after 24 hours,"0.0016% concentration (standard), Anopheles stephensi larvae, Table 1 summary",100%
same,mortality,"0.0016% concentration, fourth-stage larvae, recorded after 24 hours, laboratory conditions",100.0%
Tween-80 [Example 4],Mean % mortality after 24 hours,in vivo,0%
same,mortality,in vivo,0.0%
